Test results reported in paper PMC8533485 (Biomedicines, 2021).
Where two headings read alike, the source gives them in different places.

Experiments:
MSSA = assay: Vancomycin MIC of patient isolates by ETEST; assay type: cell-based, Staphylococcus aureus; conditions: isolates of individual patients
MRSA = assay: Vancomycin MIC of patient isolates by ETEST; assay type: cell-based, Staphylococcus aureus; conditions: isolates of individual patients
[1] = in vivo
[2] = test system: staphylococci and streptococci; conditions: in vivo
Description: (§1) T > MIC was calculated based on the terminal t1/2 for each patient as a possible marker of the long-term prophylactic effect.

[3] = test system: plasma proteins (mainly albumin); conditions: cited from earlier work
Excerpt: Currently, off-label use at high dosages for osteoarticular infections deserves attention. […] AUC0-1w/MIC and, partic ...

[4] = ref [6],[7],[8]; cited from earlier work
clinical = conditions: human, in vivo, iv
[5] = test system: plasma proteins (mainly albumin); conditions: cited from earlier work; remark: listed apart in the source
[6] = test system: staphylococci and streptococci; assay: PK/PD evaluation: observed PK versus EUCAST breakpoint MIC, adjusted by 93% protein binding; conditions: MIC 0.125 mg/L
Description: as §1

SMILES	MIC for Vancom. (MSSA) [µg/mL]	MIC for Vancom. (MRSA) [µg/mL]	t1/2 reached in multiphasic profile [1]	AUC0-2w/MIC adjusted by 93% protein binding, all patients ([2]; human)	AUC0-2w/MIC relative to previously suggested cut-off of 1000 (for staphylococci) [2]	T > MIC in all patients [2]	binding to plasma proteins [3] [%]	half-life (t1/2) [4]	half-life (clinical) [days]	half-life (clinical; 1500 mg) [days]	Cmax (clinical; 1500 mg, C max) [µg/mL]	binding to plasma proteins [5] [%]	median AUC0-2w/MIC ratio ([6]; dual dose regimen)	median AUC0-2w/MIC ratio ([6]; single dose regimen)
CN[C@H](CC(C)C)C(=O)N[C@H]1C(=O)N[C@@H](CC(N)=O)C(=O)N[C@H]2C(=O)N[C@H]3C(=O)N[C@H](C(=O)N[C@H](C(=O)O)c4cc(O)cc(O)c4-c4cc3ccc4O)[C@H](O)c3ccc(c(Cl)c3)Oc3cc2cc(c3O[C@@H]2O[C@H](CO)[C@@H](O)[C@H](O)[C@H]2O[C@H]2C[C@](C)(N)[C@H](O)[C@H](C)O2)Oc2ccc(cc2Cl)[C@H]1O [Vancomycin, vancomycin]	≤0.5	1												
CN[C@H]1C(=O)N[C@@H]2Cc3ccc(cc3)Oc3cc4cc(c3O[C@@H]3O[C@H](C(=O)O)[C@@H](O)[C@H](O)[C@H]3NC(=O)CCCCCCCCC(C)C)Oc3ccc(cc3Cl)[C@@H](O)[C@@H]3NC(=O)[C@H](NC(=O)[C@@H]4NC(=O)[C@@H](NC2=O)c2cc(cc(O)c2Cl)Oc2cc1ccc2O)c1ccc(O)c(c1)-c1c(O[C@H]2O[C@H](CO)[C@@H](O)[C@H](O)[C@@H]2O)cc(O)cc1[C@@H](C(=O)NCCCN(C)C)NC3=O [DBV, Dalbavancin]			higher than 500 h	higher than 17,000	at least 8 folds	higher than 6 weeks	93	around 9 days	26.1	21.9	390	~98	31,366	20,590
